{"source": "patent US8329693B2", "about": "“Method for the prevention of thromboembolic disorders” (Orion Corporation, priority 2004, dated 2012)", "key": {"[1]": {"test_system": "Dahl SS rats on high-salt diet", "assay": "Seven-point Neuroscore test, Dahl salt-sensitive rat stroke model", "type": "in vivo", "conditions": "throughout the study (weeks 1-8); grade 6 = normal", "protocol": "Dahl SS rats were divided into three treatment groups: High-Salt diet+vehicle (n=20), High-Salt diet+Levosimendan 1 mg/kg/day (n=20), and Normal-Salt diet control (n=4). High salt diet contained 7% of NaCl in commercial low salt diet. Feeding with the high-salt diet was started at the age of 6 weeks and continued 7 weeks until the end of the study. Levosimendan was administered via drinking water (2 mg/l of levosimendan in drinking water). The administration was started at the same time as the high-salt diet and continued until the end of the study. The consumption of drinking water and food as well as the body weight and general health of the animals were monitored. MRI was performed once-a-week during the weeks 2-8. FOB and 7-point Neuroscore testing were performed once-a-week during the weeks 1-3 and twice-a-week during weeks the 4-8.\nFunctional observational battery (FOB) and Neuroscore testing were performed once-a-week during weeks 1-3 and twice-a-week during weeks 4-8.\nA seven-point neuroscore test was used to assess motor and behavioral deficits (modified from Zausinger et al. Brain Res. 863:94-105, 2000). The neurological test was conducted by an investigator blinded to the treatment status of the rats. The seven-point scale was as follows:\nGrade 6: Normal extension of both forelimbs towards the floor when lifted gently by the tail. […]"}, "[2]": {"test_system": "Kininogen", "assay": "Effect on kininogen expression in rat heart (2-DE gels, silver staining, MALDI-TOF)", "type": "in vivo, Rattus novergicus", "conditions": "levosimendan orally 20 mg/l in tab water for eight days", "protocol": "Rats were given levosimendan orally 20 mg/l in tab water and controls only tab water for eight days. Hearts were frozen in liquid nitrogen and stored at −80° C. The heart tissues were lyophilized on ice over night and incubated in lysis buffer; 9 M urea, 20 mM Tris-HCl pH 7.4, 50 mM KCl, 3 mM EDTA pH 7.5, 0.5% IPG buffer 3-10 NL, 5 mM PMSF, 1% DTT and Benzoase 100 Units for 10 min at room temperature. The protein solution was then sonicated 2×15 s and centrifuged at 14000 rpm for 5 min. The supernatants were collected and the protein amount measured based on the protein assay kit from BioRad. 40 μg protein solution was diluted in 350 μl of rehydration buffer; 7 M urea, 2 M thiourea, 2 mM TBP, 0.5% IPG buffer 3-10 NL, 4% CHAPS and 0.2% BFB, incubated for 30 min at room temperature and centrifuged for 5 min at 14000 rpm. […]\nThe focused strips were equilibrated in the following buffer: 6 M urea, 50 mM Tris-HCl, pH 8.8, 2% SDS, 30% glycerol, 2% DTT, 2.5% iodoacetamide and 0.2% BFB 2×10 min at room temperature. […] The silver stained gels were analyzed by PD-QUEST(6.2) 2-DE software (BIO-RAD). […]\nAll samples were prepared by reversed phase pipette tips C18 (ZipTip, Millipore). […] The samples were analyzed in a TOF mass spectrometer (Voyager-DE PRO). […] The masses of the obtained peptides were analysed by the MS-fit program on the Expasy Molecular Biology server PeptIdent."}}}
{"smiles": "CC1CC(=O)NN=C1c1ccc(NN=C(C#N)C#N)cc1", "note": "(single isomer, unassigned; (-)) [levosimendan, (−)-enantiomer of [[4-(1,4,5,6-tetrahydro-4-methyl-6-oxo-3-pyridazinyl)phenyl]hydrazono]propanedinitrile]", "values": [{"measurement": "seven-point Neuroscore", "setting": "[1]", "result": "scored maximum scores throughout the study"}, {"measurement": "kininogen protein expression in rat heart versus control", "setting": "[2]", "result": "ten fold up-regulated"}]}
